# Positions count from the first letter of the chain named.
# Columns and labels:
# Format in all cases: cell-based
# ASCT2 (rASCT2) [1] = molecular target: T1, ASCT2 (rASCT2) (Rattus norvegicus, UniProt D3ZJ25, D402N); assay: whole-cell patch clamp, anion current dose response at […] Na+
# T1 construct: gene Slc1a5; rASCT2 mutant expressed in HEK293T cells
# T1 sequence (D3ZJ25 1-555 D402N): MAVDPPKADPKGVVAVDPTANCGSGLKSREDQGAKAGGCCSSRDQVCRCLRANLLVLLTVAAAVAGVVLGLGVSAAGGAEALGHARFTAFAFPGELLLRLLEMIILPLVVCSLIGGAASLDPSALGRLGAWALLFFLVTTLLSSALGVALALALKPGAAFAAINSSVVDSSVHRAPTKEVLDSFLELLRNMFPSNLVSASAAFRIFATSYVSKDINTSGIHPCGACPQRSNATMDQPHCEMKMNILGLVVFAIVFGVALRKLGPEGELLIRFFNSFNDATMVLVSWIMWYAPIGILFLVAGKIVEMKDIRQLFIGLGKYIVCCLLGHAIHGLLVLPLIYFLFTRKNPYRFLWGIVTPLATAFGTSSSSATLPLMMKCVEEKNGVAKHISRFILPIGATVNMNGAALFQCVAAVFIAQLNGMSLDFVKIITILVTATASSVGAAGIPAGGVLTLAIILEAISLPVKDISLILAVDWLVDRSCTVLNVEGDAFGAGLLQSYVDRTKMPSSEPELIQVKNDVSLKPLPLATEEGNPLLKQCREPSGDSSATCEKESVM
# ASCT2 (rASCT2) [2] = molecular target: T2, ASCT2 (rASCT2) (Rattus norvegicus, UniProt D3ZJ25); assay: whole-cell patch clamp (leak anion current block dose response; rapid solution exchange and displacement by serine)
# T2 construct: gene Slc1a5; rASCT2 cDNA in pBK-CMV, expressed in HEK293T cells
# T2 sequence (D3ZJ25 1-555): T1 sequence (D3ZJ25 1-555 D402N) with N402D
# ASCT2 (rASCT2) [3] = molecular target: T3, ASCT2 (rASCT2) (Rattus norvegicus, UniProt D3ZJ25, D489N); assay: whole-cell patch clamp, anion current dose response at […] Na+
# T3 construct: gene Slc1a5; rASCT2 mutant expressed in HEK293T cells
# T3 sequence (D3ZJ25 1-555 D489N): T1 sequence (D3ZJ25 1-555 D402N) with N402D, D489N
smiles,measurement,setting,value
"O=C(O[C@@H]1CN[C@H](C(=O)O)C1)c1ccc(-c2ccccc2)cc1 [Lc-BPE, L-cis hydroxyproline biphenyl ester]",IC50,ASCT2 (rASCT2) [1],1600 ± 100 nM
same,IC50,ASCT2 (rASCT2) [2],830 ± 200 nM
same,IC50,ASCT2 (rASCT2) [3],4400 ± 800 nM

# Source: publication PMC11193019, “Transient kinetics reveal the mechanism of competitive inhibition of the neutral amino acid transporter ASCT2” (The Journal of Biological Chemistry, 2024)
